Measurements taken from ChEMBL document CHEMBL4342426, “Structure-activity relationship of 4-azaindole-2-piperidine derivatives as agents against Trypanosoma cruzi” (Bioorg Med Chem Lett, 2020).

Key:
in vitro [1] = settings: mouse, peritoneal macrophages
Description: (§1) Cytotoxicity against mouse peritoneal Macrophage cells assessed as reduction in cell viability incubated for 3 days by fluorimetry

Leishmania infantum = experiment: microbe, parasite or virus in culture; settings: for IC50: MHOM/MA(BE)/67/ITMAP263, 120 h; for IC90: MHOM/MA(BE)/67/ITMAP263, in Mus musculus, 120 h
Description: Antileishmanial activity against amastigote stage of Leishmania infantum MHOM/MA(BE)/67/ITMAP263 infected in mouse peritoneal macrophage assessed as parasite growth inhibition incubated for 5 days by Giemsa staining based assay

cells = settings: Homo sapiens, MRC-5 SV2, 72 h
Description: (§2) Cytotoxicity against human MRC5 SV2 cells assessed as reduction in cell viability incubated for 3 days by fluorimetry

Trypanosoma cruzi = experiment: microbe, parasite or virus in culture; settings: Tulahuen CL2, MRC-5 SV2, 168 h
Description: Antitrypanosomal activity against Trypanosoma cruzi Tulahuen CL2 amastigotes infected in human MRC5 SV2 cells incubated for 7 days by chlorophenol red beta-D-galactopyranoside substrate based spectrophotometric assay

physchem = settings: buffer, pH 7.4
Description: Lipophilicity, logD of compound at pH 7.4 by HPLC analysis

in vitro [2] = settings: mouse, liver microsomes
Description: Metabolic stability in mouse liver microsomes assessed as intrinsic clearance at 0.5 uM incubated for 30 mins by LC-MS/MS analysis

in vitro [3] = settings: PAMPA
Description: Effective permeability of compound by PAMPA assay

Trypanosoma brucei = experiment: microbe, parasite or virus in culture; settings: Squib 427, 72 h
Description: Antitrypanosomal activity against Trypanosoma brucei Squib 427 assessed as reduction in parasite growth incubated for 72 hrs by resazurin dye based fluorimetric analysis

[4] = test system: Trypanosoma brucei rhodesiense; experiment: microbe, parasite or virus in culture; settings: STIB900, 72 h
Description: Antiprotozoal activity against Trypanosoma brucei rhodesiense STIB900 trypomastigotes incubated for 72 hrs by resazurin dye based fluorimetric analysis

in vitro [5] = settings: human, MRC5 SV2 cells
Description: as §2

in vitro [6] = settings: human, liver microsomes
Description: Metabolic stability in human liver microsomes assessed as intrinsic clearance at 0.5 uM incubated for 30 mins by LC-MS/MS analysis

Macrophage = experiment: cells; settings: Mus musculus, 72 h
Description: as §1

| Compound | IC90 at 72 h (in vitro [1]) | IC50 (Leishmania infantum) | IC90 (Leishmania infantum) | IC50 (cells) | IC50 (Trypanosoma cruzi) | IC90 (Trypanosoma cruzi) | logD (physchem) | CLint scaled at 0.5 h, 0.5 µM (in vitro [2]) | microsomal CLint at 0.5 h, 0.5 µM (in vitro [2]) | Papp (in vitro [3]) | IC50 (Trypanosoma brucei) | IC90 (Trypanosoma brucei) | IC50 [4] | IC90 [4] | IC90 at 72 h (in vitro [5]) | CLint scaled at 0.5 h, 0.5 µM (in vitro [6]) | microsomal CLint at 0.5 h, 0.5 µM (in vitro [6]) | IC50 (Macrophage) |
| --- | --- | --- | --- | --- | --- | --- | --- | --- | --- | --- | --- | --- | --- | --- | --- | --- | --- | --- |
| O=C(NCCc1nc2ncc(Cl)cc2[nH]1)c1ccccc1 | 64 µM | 64 µM | 64 µM | 64 µM | 64 µM | 64 µM | 2.49 | < 95 mL/min/kg | < 23 µL/min/mg | 8.77 ×10⁻⁶ cm/s | 64 µM | 64 µM | 64 µM | 64 µM | 64 µM | < 31.7 mL/min/kg | < 23 µL/min/mg | 64 µM |
| O=C(c1ccccn1)N1CCCC(c2cc3ncccc3[nH]2)C1 (configuration not stated) | 64 µM | 64 µM | 64 µM | 64 µM | 64 µM | 64 µM | 1.85 | 523 mL/min/kg | 164 µL/min/mg | 2.33 ×10⁻⁶ cm/s | 64 µM | 64 µM | 64 µM | 64 µM | 64 µM | < 25 mL/min/kg | < 23 µL/min/mg | 64 µM |
| O=C(c1ccccc1)N1CC=C(c2cc3ccccc3[nH]2)CC1 | 64 µM | 64 µM | 64 µM | 64 µM | 41.9 µM | 64 µM | 4.15 | 13200 mL/min/kg | 1370 µL/min/mg | 4.86 ×10⁻⁶ cm/s | 64 µM | 64 µM | 64 µM | 64 µM | 64 µM | 201 mL/min/kg | 61.9 µL/min/mg | 64 µM |
| O=C(NCCc1nc2ccccc2[nH]1)c1ccccc1 | 64 µM | 64 µM | 64 µM | 64 µM | 64 µM | 64 µM |  |  |  |  | 64 µM | 64 µM | 64 µM | 64 µM | 64 µM |  |  | 64 µM |
| CN(CC(O)c1cc2ncccc2n1S(=O)(=O)c1ccccc1)C(=O)c1ccccc1 (configuration not stated) | 14.9 µM | 11.4 µM | 15.1 µM | 64 µM | 64 µM | 64 µM | 3.31 | 2050 mL/min/kg | 498 µL/min/mg | 15.7 ×10⁻⁶ cm/s | 64 µM | 64 µM | 59.4 µM | 64 µM | 64 µM | 223 mL/min/kg | 160 µL/min/mg | 11.3 µM |
| O=S(=O)(c1ccccc1)N1CC=C(c2cc3ncccc3[nH]2)CC1 | 59.7 µM | 45.6 µM | 60.5 µM | 64 µM | 64 µM | 64 µM |  |  |  |  | 64 µM | 64 µM | 64 µM | 64 µM | 64 µM |  |  | 45.3 µM |
| CC(C)(C)OC(=O)N1CCCC(O)(c2cc3ncccc3[nH]2)C1 (configuration not stated) | 64 µM | 64 µM | 64 µM | 64 µM | 64 µM | 64 µM |  |  |  |  | 64 µM | 64 µM | 64 µM | 64 µM | 64 µM |  |  | 64 µM |
| CCN(CCc1nc2ncccc2[nH]1)C(=O)c1ccccc1 | 64 µM | 64 µM | 64 µM | 64 µM | 64 µM | 64 µM | 1.63 |  |  | 3.35 to 3.44 ×10⁻⁶ cm/s | 64 µM | 64 µM | 64 µM | 64 µM | 64 µM |  |  | 64 µM |
| N#Cc1cnc2cc(C3CCCN(C(=O)c4cc(C(F)(F)F)no4)C3)[nH]c2c1 (configuration not stated) | 59.7 µM | 39.2 µM | 59 µM | 64 µM | 64 µM | 64 µM | 3.5 | 310 to 555 mL/min/kg | 68.3 to 114 µL/min/mg | 5.51 ×10⁻⁶ cm/s | 64 µM | 64 µM | 64 µM | 64 µM | 64 µM | 50.5 to 54.2 mL/min/kg | 32.9 µL/min/mg | 45.3 µM |
| CC(=O)N1C=C(c2cc3ncccc3[nH]2)CCC1 | 64 µM | 64 µM | 64 µM | 64 µM | 64 µM | 64 µM |  |  |  |  | 64 µM | 64 µM | 64 µM | 64 µM | 64 µM |  |  | 64 µM |
